Assay results taken from patent US8338414B2, “Immunosuppressive agent and anti-tumor agent comprising heterocyclic compound as active ingredient” (Zenyaku Kogyo KabushikiKaisha, priority 2005, dated 2012).
pIC50: −log10 of the molar value. Like-named read-outs stand apart in the source and are kept apart here.

Tests used:
[1] = tested on: PC-3 prostate cancer cells; test: Proliferation inhibitory activity on solid tumor cells, PC-3; format: cell-based; conditions: 72 hours
Protocol: (§1) Used in the test were MCF-7 cells which were established from human breast cancer and were cultured routinely under the conditions of 37° C. and 5% CO2, in MEM medium supplemented with 10% fetal calf serum, 25 mM of HEPES and 0.1 mg/ml kanamycin. The MCF-7 cells in a logarithmic growth phase were treated with trypsin/EDTA to prepare single cell suspension adjusted to 4.0×10^4 cells/ml in MEM medium (supplemented with 10% fetal calf serum, 25 mM of HEPES and 0.1 mg/ml kanamycin). Test compounds were dissolved in DMSO and diluted with RPMI 1640 medium (supplemented with 10% fetal calf serum, 25 mM of HEPES and 0.1 mg/ml kanamycin) to a concentration of […] to 2.0×10^−9M.
(§2) The cell suspension was filled in a 96-wells microplate at a rate of 0.1 ml per well and was cultured for 24 hours so as to make the cells to adhere to the microplate. Then, it was added with 0.1 ml of the sample solution and cultured at 37° C. for 72 hours in 5% CO2.
(§3) 50% Growth inhibition concentrations (GI50 μM) were calculated from growth inhibitions at various sample concentrations.
(§4) In the foregoing, when the cells other than MCF-7 are used, instead of adding 10% fetal bovine serum, the following media were used, and the following single cell suspensions were prepared. • PC-3 prostate cancer cells: 10% fetal bovine serum in F12K medium, single cell suspension of 2×10^4 cells; • A549 lung cancer cells: 10% fetal bovine serum in DMEM medium, single cell suspension of 1.5×10^4 cells; • WiDr colon cancer cells: 10% fetal bovine serum in MEM medium, single cell suspension of 3×10^4 cells; • B16F10 melanoma cells: 10% fetal bovine serum in RPMI 1640 medium, single cell suspension of 1×10^4 cells;

[2] = tested on: B16F10 melanoma cells; test: Proliferation inhibitory activity on solid tumor cells, B16F10; format: cell-based; conditions: Mus musculus, B16-F10; 72 hours
Protocol: as §1, §2, §3, §4

[3] = tested on: WiDr colon cancer cells; test: Proliferation inhibitory activity on solid tumor cells, WiDr; format: cell-based; conditions: Homo sapiens, 72 hours
Protocol: as §1, §2, §3, §4

[4] = tested on: A549 lung cancer cells; test: Proliferation inhibitory activity on solid tumor cells, A549; format: cell-based; conditions: Homo sapiens, 72 hours
Protocol: as §1, §2, §3, §4

[5] = tested on: MCF-7 cells; test: Proliferation inhibitory activity on solid tumor cells, MCF-7; format: cell-based; conditions: Homo sapiens, MCF7; 72 hours
Protocol: as §1, §2, §3

[6] = tested on: mouse spleen cells; test: Proliferation inhibition assay for mouse spleen cells; format: cell-based; conditions: 72 h, 3 days, Alamar Blue
Protocol: Spleen cells (2×10^6 cells/mL) prepared from C57BL/6N female mice (8 weeks old, purchased from Charles River Laboratories Japan Inc.) were suspended in RPMI 1640 medium (containing 10% fetal bovine serum, 10 mM HEPES, 1 mM pyruvic acid, 4.5 g/L glucose, 100 units/mL penicillin, and 0.1 mg/mL streptomycin), and seeded in wells of a 96 well plate at 0.225 mL per well. Serial dilutions of test substances were added to respective wells, and then concanavalin A (Con A, 3 μg/mL), lipopolysaccharide (LPS, 100 μg/mL), or an anti-mouse IgM antibody (100 μg/mL) were added. Thereafter, they were incubated under conditions of carbon dioxide 5% at a temperature 37° C. for 3 days. Next, Alamar Blue solution was added at 50 μL per 150 μL, and after having cultured for one day, the fluorescence intensity at 590 nm using an excitation wavelength of 530 nm was determined by Cytoflour 4000 (Applied Biosystems).

[7] = tested on: Rabbit synoviocytes HIG-82; test: Inhibition assay for proliferation of rabbit synoviocyte; format: cell-based; conditions: Oryctolagus cuniculus, 72 h; HIG-82, 3 days, Alamar Blue
Protocol: Rabbit synoviocytes HIG-82 suspended in HAM medium (containing 10% fetal bovine serum, 25 mM HEPES, and 0.1 mg/mL kanamycin) (with 4×10^4 cells/mL) were seeded in wells of a 96 well plate at 0.135 mL per well. Then, 15 μL of each of serial dilutions of test substances was added to a respective well, and incubated under conditions of carbon dioxide 5% at a temperature 37° C. Alamar Blue solution was added at 50 μL per well on day 0 and day 3, and incubated for one day, and thereafter fluorescence intensity at 590 nm using an excitation wavelength of 530 nm was determined by Cytoflour 4000 (Applied Biosystems).

[8] = tested on: Daudi cells; test: Proliferation inhibitory activity on hematologic neoplasm cells, Daudi; format: cell-based; conditions: Homo sapiens, Daudi, 72 h; 3 days, Alamar Blue
Protocol: (§5) Daudi cells (5×10^5 cells/mL), Jurkat cells (5×10^5 cells/mL), THP-1 cells (5×10^5 cells/mL), U 937 cells (5×10^5 cells/mL), and HL 60 cells (5×10^5 cells/mL) suspended in RPMI 1640 medium (containing 10% fetal bovine serum, 10 mM HEPES, 1 mM pyruvic acid, 4.5 g/L glucose, 100 units/mL penicillin, and 0.1 mg/mL streptomycin) were seeded in 96 well plates at a capacity of 0.135 mL per well. Serial dilutions of test substances were added to respective wells at 15 μL/well, and incubated under conditions of carbon dioxide 5% at 37° C. for 3 days. Thereafter, Alamar Blue solution was added at 50 μL, and after incubation for one day, the fluorescence intensity at 590 nm using an excitation wavelength of 530 nm was determined by Cytoflour 4000 (Applied Biosystems).

[9] = tested on: Jurkat cells; test: Proliferation inhibitory activity on hematologic neoplasm cells, Jurkat; format: cell-based; conditions: Homo sapiens, Jurkat, 72 h; 3 days, Alamar Blue
Protocol: as §5

[10] = tested on: THP-1 cells; test: Proliferation inhibitory activity on hematologic neoplasm cells, THP-1; format: cell-based; conditions: Homo sapiens, THP-1, 72 h; 3 days, Alamar Blue
Protocol: as §5

[11] = LPS 100 μg/mL, read-out: Inhibition of LPS response
[12] = concanavalin A 3 μg/mL, read-out: Inhibition of Con A response

GI50 [1] | GI50 [2] | GI50 [3] | GI50 [4] | GI50 [5] | melting point | pIC50 [8] | pIC50 [9] | pIC50 [10] | Compound | pIC50 [6, 11] | pIC50 [6, 12] | pIC50 [7]
550 nM | 2910 nM | 2070 nM | 1380 nM | 140 nM |  |  |  |  | OCCCN1CCN(c2nc(N3CCOCC3)nc(-n3c(C(F)F)nc4ccccc43)n2)CC1 [Compound 34, 2-(2-Difluoromethylbenzimidazol-1-yl)-4-[4-(3-hydroxypropyl)piperazin-1-yl]-6-morpholino-1,3,5-triazine] |  |  | 
510 nM | 2910 nM | 1460 nM | 1050 nM | < 40 nM | 72 to 75 °C |  |  |  | COCC(=O)N1CCN(c2nc(N3CCOCC3)nc(-n3c(C(F)F)nc4ccccc43)n2)CC1 [Compound 33, 2-(2-Difluoromethylbenzimidazol-1-yl)-4-(4-methoxylacetylpiperazin-1-yl)-6-morpholino-1,3,5-triazine] |  |  | 
320 nM | 1510 nM | 1430 nM | 650 nM | 50 nM | 220 to 222 °C |  |  |  | O=C(c1ccco1)N1CCN(c2nc(N3CCOCC3)nc(-n3c(C(F)F)nc4ccccc43)n2)CC1 [Compound 31, 2-(2-Difluoromethylbenzimidazol-1-yl)-4-[4-(2-furoyl)piperazin-1-yl]-6-morpholino-1,3,5-triazine] |  |  | 
380 nM | 2140 nM | 1330 nM | 830 nM | < 40 nM | 203 to 205 °C |  |  |  | CN(C)C(=O)N1CCN(c2nc(N3CCOCC3)nc(-n3c(C(F)F)nc4ccccc43)n2)CC1 [Compound 32, 2-(2-Difluoromethylbenzimidazol-1-yl)-4-[4-(N,N-dimethylcarbamoyl)piperazin-1-yl]-6-morpholino-1,3,5-triazine] |  |  | 
310 nM | 4630 nM | 1320 nM | 1120 nM | 1140 nM | 174 to 177 °C | 6.49 | 5.44 | 6.14 | OCCN1CCN(c2nc(N3CCOCC3)nc(-n3c(C(F)F)nc4ccccc43)n2)CC1 [Compound 27, 2-(2-Difluoromethylbenzimidazol-1-yl)-4-[4-(2-hydroxyethyl)piperazin-1-yl]-6-morpholino-1,3,5-triazine] | 5.00 to 7.00 | ≥ 9.00 | 5.81
270 nM | 3210 nM | 920 nM | 990 nM | 980 nM | 235 to 237 °C | 6.72 | 5.80 | 6.42 | O=C1CCN(c2nc(N3CCOCC3)nc(-n3c(C(F)F)nc4ccccc43)n2)CCN1 [Compound 25, 2-(2-Difluoromethylbenzimidazol-1-yl)-4-morpholino-6-(5-oxo-1,4-diazepan-1-yl)-1,3,5-triazine] | 5.00 to 7.00 | 7.00 to 9.00 | 6.00
320 nM | 3930 nM | 2580 nM | 1320 nM | 700 nM | 178 to 181 °C |  |  |  | O=C(Cc1ccccc1)N1CCN(c2nc(N3CCOCC3)nc(-n3c(C(F)F)nc4ccccc43)n2)CC1 [Compound 29, 2-(2-Difluoromethylbenzimidazol-1-yl)-4-(4-benzylcarbonylpiperazin-1-yl)-6-morpholino-1,3,5-triazine] |  |  | 
770 nM | 3320 nM | 3740 nM | 1520 nM | 410 nM | 79 to 81 °C |  |  |  | CC(=O)CN1CCN(c2nc(N3CCOCC3)nc(-n3c(C(F)F)nc4ccccc43)n2)CC1 [Compound 30, 4-(4-Acetonylpiperazin-1-yl)-2-(2-difluoromethylbenzimidazol-1-yl)-6-morpholino-1,3,5-triazine] |  |  | 
730 nM | 2840 nM | 2100 nM | 1220 nM | 100 nM | 198 to 202 °C |  |  |  | CCC(=O)N1CCN(c2nc(N3CCOCC3)nc(-n3c(C(F)F)nc4ccccc43)n2)CC1 [Compound 35, 2-(2-Difluoromethylbenzimidazol-1-yl)-4-morpholino-6-(4-propionylpiperazin-1-yl)-1,3,5-triazine] |  |  | 
